Our source for the activity coefficient values is the NIST ThermoML archive (doi:10.1016/j.jct.2018.02.014).

A short description of this data set: activity coefficient (dimensionless); of the first substance listed, at infinite dilution; xn = mol fraction of the nth substance listed. The following applies: 101.33 kPa, Liquid, Chromatography, x1 = 0.

Numbers after ± are expanded uncertainties.

As for `CC(C)(C)O` [2-methylpropan-2-ol] + CC[N+]1(C)CCOCC1.N#CN=C=[N-], the activity coefficient is, setting by setting: (318.15 K) 2.77 ± 0.19; (328.15 K) 2.78 ± 0.19; (338.15 K) 2.8 ± 0.19; (348.15 K) 2.82 ± 0.19; (358.15 K) 2.83 ± 0.19; (368.15 K) 2.85 ± 0.19.

In the case of `CCCCCCC` [heptane] + CC[N+]1(C)CCOCC1.N#CN=C=[N-], the activity coefficient was 953 ± 66 (298.15 K); 831 ± 57 (308.15 K); 729 ± 50 (318.15 K); 645 ± 44 (328.15 K); 574 ± 40 (338.15 K).

For `CCC(C)O` (stereo not given) [butan-2-ol] + CC[N+]1(C)CCOCC1.N#CN=C=[N-], the activity coefficient is, setting by setting: (318.15 K) 2.98 ± 0.2; (328.15 K) 2.94 ± 0.2; (338.15 K) 2.9 ± 0.2; (348.15 K) 2.86 ± 0.19; (358.15 K) 2.83 ± 0.19; (368.15 K) 2.81 ± 0.19.

Consider `CCCC=O` [butanal] + CC[N+]1(C)CCOCC1.N#CN=C=[N-], for which the activity coefficient (318.15 K) was found to be 3.51 ± 0.24; the activity coefficient (328.15 K) was determined as 3.65 ± 0.25; the activity coefficient (338.15 K) was 3.79 ± 0.26; the activity coefficient (348.15 K) is 3.92 ± 0.27; the activity coefficient (358.15 K) was 4.04 ± 0.28; the activity coefficient (368.15 K) came out at 4.17 ± 0.28.

Consider `CCCO` [propan-1-ol] + CC[N+]1(C)CCOCC1.N#CN=C=[N-], for which the activity coefficient (318.15 K) came to 1.85 ± 0.12; the activity coefficient (328.15 K) is 1.85 ± 0.12; the activity coefficient (338.15 K) came to 1.84 ± 0.12; the activity coefficient (348.15 K) was 1.84 ± 0.12; the activity coefficient (358.15 K) amounted to 1.84 ± 0.12; the activity coefficient (368.15 K) stood at 1.83 ± 0.12.

Turning to `CCC(=O)OC` [methyl propanoate] + CC[N+]1(C)CCOCC1.N#CN=C=[N-], the activity coefficient stood at 5.12 ± 0.35 (318.15 K); 5.36 ± 0.37 (328.15 K); 5.59 ± 0.38 (338.15 K); 5.82 ± 0.4 (348.15 K); 6.04 ± 0.41 (358.15 K); 6.26 ± 0.43 (368.15 K).

Take `CC(C)c1ccccc1` [isopropylbenzene] + CC[N+]1(C)CCOCC1.N#CN=C=[N-]: the activity coefficient by setting is: (318.15 K) 27 ± 1.8; (328.15 K) 26.9 ± 1.8; (338.15 K) 26.9 ± 1.8; (348.15 K) 26.9 ± 1.8; (358.15 K) 26.9 ± 1.8; (368.15 K) 26.9 ± 1.8.

On to `C1CCCCCC1` [cycloheptane] + CC[N+]1(C)CCOCC1.N#CN=C=[N-], for which the activity coefficient reads like this: (318.15 K) 215 ± 15; (328.15 K) 202 ± 14; (338.15 K) 189 ± 13; (348.15 K) 179 ± 12; (358.15 K) 169 ± 12; (368.15 K) 161 ± 11.

Take `CCCCO` [butan-1-ol] + CC[N+]1(C)CCOCC1.N#CN=C=[N-]: the activity coefficient runs as follows: (318.15 K) 3.08 ± 0.21; (328.15 K) 3.02 ± 0.21; (338.15 K) 2.98 ± 0.2; (348.15 K) 2.94 ± 0.2; (358.15 K) 2.9 ± 0.2; (368.15 K) 2.86 ± 0.19.

With `CCC(C)(C)OC` [2-methoxy-2-methylbutane] + CC[N+]1(C)CCOCC1.N#CN=C=[N-], the activity coefficient is, setting by setting: (328.15 K) 55.7 ± 3.8; (338.15 K) 57.9 ± 4; (348.15 K) 60 ± 4.1; (358.15 K) 62.2 ± 4.3; (368.15 K) 64.3 ± 4.4.

For `c1ccsc1` [thiophene] + CC[N+]1(C)CCOCC1.N#CN=C=[N-], the activity coefficient runs as follows: (318.15 K) 2.24 ± 0.15; (328.15 K) 2.36 ± 0.16; (338.15 K) 2.48 ± 0.17; (348.15 K) 2.59 ± 0.18; (358.15 K) 2.71 ± 0.18; (368.15 K) 2.82 ± 0.19.

On to `c1ccccc1` [benzene] + CC[N+]1(C)CCOCC1.N#CN=C=[N-], for which the activity coefficient was 4.46 ± 0.3 (318.15 K); 4.62 ± 0.31 (328.15 K); 4.76 ± 0.32 (338.15 K); 4.91 ± 0.33 (348.15 K); 5.05 ± 0.34 (358.15 K); 5.2 ± 0.35 (368.15 K).

Turning to `CO` [methanol] + CC[N+]1(C)CCOCC1.N#CN=C=[N-], the activity coefficient was 0.617 ± 0.043 (318.15 K); 0.631 ± 0.044 (328.15 K); 0.645 ± 0.044 (338.15 K); 0.659 ± 0.045 (348.15 K); 0.672 ± 0.046 (358.15 K); 0.684 ± 0.046 (368.15 K).

Take `CCOCC` [diethyl ether] + CC[N+]1(C)CCOCC1.N#CN=C=[N-]: the activity coefficient is, setting by setting: (328.15 K) 28.5 ± 1.9; (338.15 K) 29.3 ± 2; (348.15 K) 30.1 ± 2.1; (358.15 K) 30.8 ± 2.1; (368.15 K) 31.6 ± 2.2.

For the molecule `Cc1ccccc1` [toluene] + CC[N+]1(C)CCOCC1.N#CN=C=[N-], the activity coefficient (318.15 K) came to 7.87 ± 0.54; the activity coefficient (328.15 K) worked out at 8.1 ± 0.55; the activity coefficient (338.15 K) was found to be 8.33 ± 0.57; the activity coefficient (348.15 K) is 8.56 ± 0.58; the activity coefficient (358.15 K) was 8.77 ± 0.6; the activity coefficient (368.15 K) worked out at 8.99 ± 0.61.

With `C1CCCCC1` [cyclohexane] + CC[N+]1(C)CCOCC1.N#CN=C=[N-], the activity coefficient came out at 168 ± 12 (318.15 K); 152 ± 10 (328.15 K); 138 ± 9 (338.15 K); 126 ± 9 (348.15 K); 115 ± 8 (358.15 K); 106 ± 7 (368.15 K).

With `C1COCCO1` [1,4-dioxane] + CC[N+]1(C)CCOCC1.N#CN=C=[N-], the activity coefficient reads like this: (318.15 K) 1.57 ± 0.1; (328.15 K) 1.69 ± 0.11; (338.15 K) 1.82 ± 0.12; (348.15 K) 1.94 ± 0.13; (358.15 K) 2.06 ± 0.14; (368.15 K) 2.19 ± 0.15.

Take `CC(C)O` [propan-2-ol] + CC[N+]1(C)CCOCC1.N#CN=C=[N-]: the activity coefficient is 2.02 ± 0.14 (318.15 K); 2 ± 0.14 (328.15 K); 1.99 ± 0.14 (338.15 K); 1.97 ± 0.13 (348.15 K); 1.96 ± 0.13 (358.15 K); 1.95 ± 0.13 (368.15 K).

Take `C=CCCCCCC` [oct-1-ene] + CC[N+]1(C)CCOCC1.N#CN=C=[N-]: the activity coefficient runs as follows: (318.15 K) 496 ± 34; (328.15 K) 445 ± 31; (338.15 K) 402 ± 28; (348.15 K) 364 ± 25; (358.15 K) 333 ± 23; (368.15 K) 307 ± 21.

`C=COC(C)=O` [vinyl acetate] + CC[N+]1(C)CCOCC1.N#CN=C=[N-]: the activity coefficient reads like this: (318.15 K) 4.22 ± 0.29; (328.15 K) 4.41 ± 0.3; (338.15 K) 4.6 ± 0.31; (348.15 K) 4.78 ± 0.33; (358.15 K) 4.97 ± 0.34; (368.15 K) 5.15 ± 0.35.

`CCCOCCC` [dipropyl ether] + CC[N+]1(C)CCOCC1.N#CN=C=[N-]: the activity coefficient reads like this: (328.15 K) 110 ± 8; (338.15 K) 112 ± 8; (348.15 K) 114 ± 8; (358.15 K) 116 ± 8; (368.15 K) 119 ± 8.

In the case of `CCO` [ethanol] + CC[N+]1(C)CCOCC1.N#CN=C=[N-], the activity coefficient (318.15 K) is 1.2 ± 0.08; the activity coefficient (328.15 K) turned out to be 1.2 ± 0.08; the activity coefficient (338.15 K) was determined as 1.21 ± 0.08; the activity coefficient (348.15 K) is 1.21 ± 0.08; the activity coefficient (358.15 K) came out at 1.22 ± 0.08; the activity coefficient (368.15 K) came to 1.22 ± 0.08.

On to `C=CCCCCC` [1-heptene] + CC[N+]1(C)CCOCC1.N#CN=C=[N-], for which the activity coefficient was 288 ± 20 (318.15 K); 268 ± 18 (328.15 K); 251 ± 17 (338.15 K); 236 ± 16 (348.15 K); 222 ± 15 (358.15 K); 210 ± 14 (368.15 K).

With `C=CCCCCCCCC` [1-decene] + CC[N+]1(C)CCOCC1.N#CN=C=[N-], the activity coefficient is 1200 ± 83 (318.15 K); 1070 ± 74 (328.15 K); 960 ± 66 (338.15 K); 865 ± 60 (348.15 K); 785 ± 54 (358.15 K); 718 ± 49 (368.15 K).
